Experimental data: patent US20070225253A1, “Use of a trioxopyrimidine for the treatment and prevention of bronchial inflammatory diseases” (priority 2004, published 2007)
pIC50: −log10 of the molar value.

Experiments:
[1] = test system: allergen-induced airway inflammation and bronchial hyperresponsiveness; assay: Mouse model of asthma (OVA), inhalation, short exposure challenge; assay type: in vivo, mice; details: aerosol, short-term exposure; Compound I 0.03 and 0.3 mg/ml, fluticasone 1 mg/ml; vs placebo, p<0.0001
Protocol: (§1) In order to study the modulation of airway inflammation by intraperitoneal injection of Compound I, mice were sensitized with 10 μg ovalbumin alumin-adsorbed (aluminject, perbio, Erembodegem, Belgium) injected intraperitonealy at days 0 and 7 and were subsequently exposed to OVA 1% or PBS aerosols for 30 minutes from day 21 to 24. Intraperitoneal injections were performed 30 min before OVA inhalations. The different injected formulations were: cremophor 10%-DMSO 10%-PBS 80%- Compound I30 mg/kg (suspension); cremophor 10%-DMSO 10%-PBS 80%- Compound I3.75 mg/kg (solution); HPβCD 200 mM Compound I 7.5 mg/kg (solution); HPβCD 200 mM. All results were compared to mice sensitized and exposed to PBS and OVA treated with PBS injected intraperitonealy. In order to study the modulation of airway inflammation by inhaled Compound I, mice were sensitized as described previously. Two protocols referred to as short exposure challenge and long-term exposure challenge were used. In the short exposure challenge, mice were exposed to aerosols of Compound I-complex at concentrations of 0.03 and 0.3 mg/ml of active compound in aqueous solution of from day 21 to 27 during 30 min in a Plexiglas exposure chamber (30×20×15 cm). Mice were exposed to OVA aerosols 30 minutes after the Compound I inhalation from day 23 to 27. In the so called long-term inhalation challenge, mice were exposed to aerosols of Compound Iat concentrations of 0.03 and 0.3 mg/ml complexed with HPβCD in an aqueous solution during 30 min five days odd weeks and to OVA aerosols 3 days odd weeks for 11 weeks. No inhalations were performed during even weeks.
The aerosol were produced by using an ultrasonic nebuliser SYSTAM (Systeme Assistance Medical, Le Ledat, France), the vibration frequency of which is 2.4 MHz with variable vibration intensity and ventilation levels. Vibration intensity was fixed in position 6 and the ventilation level was 25(ν1/2)1/min.
(§2) Twenty-four hours after the last allergen exposure, the bronchial hyper responsiveness was determined by measuring the Penh using a barometric plethysmograph as proposed by Hamelmann, E., et al., Am. J Respir. Crit. Care Med. 156 (1997) 766-775). The Penh was measured at baseline and 5 min after the inhalation of increasing doses (25, 50, 75 and 100 mM) of methacholine (Mch).
(§3) Immediately after the assessment of airway responsiveness, mice were sacrificed and 1 ml of PBS free of ionised calcium and magnesium but supplemented with 0.05 mM sodium EDTA was instilled 4 times via a tracheal cannula and recovered by gentle manual aspiration. The recovered bronchoalveolar lavage fluid (BAL) was centrifuged (1800 rpm for 10 min at 4° C.). […] A value from 0 to 3 per criteria was adjudged to each tissue section scored. […]

[2] = test system: allergen-induced airway inflammation; assay: Mouse model of asthma (OVA), inhalation, long-term exposure challenge (11 weeks); assay type: in vivo, mice; details: aerosol, long term allergen exposure (11 weeks)
Protocol: as §1, with “In the so called long-term inhalation challenge, mice were exposed to aerosols of Compound Iat concentrations of 0.03 and 0.3 mg/ml complexed with HPβCD in an aqueous solution during 30 min five days odd weeks and to OVA aerosols 3 days odd weeks for 11 weeks. No inhalations were performed during even weeks.” left out
as §2, with “J Respir. Crit. Care Med. 156 (1997) 766-775).” left out
as §3, with “aspiration.” for “aspiration. The recovered bronchoalveolar lavage fluid (BAL) was centrifuged (1800 rpm for 10 min at 4° C.).”

Human MMP-9 = Human MMP-9 (Homo sapiens, UniProt P14780); assay: MMP enzymatic activity, modified fluorescence assay (DNP-substrate); assay type: biochemical; details: read-out: IC50 MMP-9
Sequence of Human MMP-9 (P14780 107-707 limits assumed): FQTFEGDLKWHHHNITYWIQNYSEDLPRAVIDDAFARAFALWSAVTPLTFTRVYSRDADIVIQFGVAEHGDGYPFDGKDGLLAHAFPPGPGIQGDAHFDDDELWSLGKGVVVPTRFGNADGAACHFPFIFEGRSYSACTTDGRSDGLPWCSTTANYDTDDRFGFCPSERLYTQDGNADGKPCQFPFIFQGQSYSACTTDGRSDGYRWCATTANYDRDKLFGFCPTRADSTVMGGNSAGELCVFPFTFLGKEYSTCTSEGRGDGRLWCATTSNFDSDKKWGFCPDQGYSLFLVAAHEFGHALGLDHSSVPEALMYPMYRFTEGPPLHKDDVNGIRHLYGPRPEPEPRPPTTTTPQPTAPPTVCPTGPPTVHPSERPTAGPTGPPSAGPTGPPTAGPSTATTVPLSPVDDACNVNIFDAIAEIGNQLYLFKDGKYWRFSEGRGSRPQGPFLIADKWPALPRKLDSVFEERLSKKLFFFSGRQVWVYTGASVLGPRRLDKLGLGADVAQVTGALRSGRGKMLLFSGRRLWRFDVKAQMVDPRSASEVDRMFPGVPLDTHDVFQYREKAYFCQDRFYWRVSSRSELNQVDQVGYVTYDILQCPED
Protocol: (§4) IC50 values are measured by an in vitro assay for MMP enzymatic activity. Such an assay is described by Stack, M. S., and Gray, R. D., J. Biol. Chem. 264 (1989) 4277-4281. This assay is based on the determination of MMP enzymatic activity on a dinitrophenol substrate and fluorescence measurement of the substrate after cleaving by MMPs.
(§5) Inhibitors were tested in a modified fluorescence-assay as described by Stack, M. S., and Gray, R. D., J. Biol. Chem. 264 (1989) 4277-4281. Human MMP-1, MMP-2, MMP-3, MMP-9 and MMP-14 are commercially available (e.g. Calbiochem). The pro-enzymes were activated with 1 mM APMA (incubation for 30 min at 37° C.) immediately before testing. Activated enzyme is diluted to 100 ng/ml in incubation buffer (50 mM Tris, 100 mM NaCl, 10 mM CaCl2, pH 7.6). The compounds were dissolved in 100% DMSO. […] DNP-substrate (Bachem M1855, 255 μM) was dissolved in incubation buffer.
(§6) The test tube contains 970 μl incubation buffer, 10 μl inhibitor solution and 10 μl enzyme solution. The reaction was started by adding the 10 μl substrate solution.
(§7) Kinetics of activity were determined using excitation at 280 nm and emission at 346 nm measured on a FluoroMax™ (Spex Industries Inc., Edison, N.J., USA) over 120 sec. DMSO has been used as control instead of inhibitor solution.
(§8) IC50's are defined as the concentration of inhibitor that gives a signal that is 50% of the positive enzyme control.

Human MMP-14 = Human MMP-14 (Homo sapiens, UniProt P50281); assay: as above; assay type: biochemical; details: read-out: IC50 MMP-14
Protocol: as §4, §5, §6, §7, §8

`CCC(=O)O[C@]1(C(=O)SCF)[C@H](C)C[C@H]2[C@@H]3C[C@H](F)C4=CC(=O)C=C[C@]4(C)[C@@]3(F)[C@@H](O)C[C@@]21C` was tested, and the “eosinophilic inflammation in BAL” value [1] was “significant decrease”, the peribronchial inflammation score ([2]; p<0.0001) was “significantly decreased” and the BAL eosinophilia ([2]; p<0.001) was “significantly decreased”. For the same molecule, the “tissue eosinophil infiltration score” value ([2]; p<0.01) was “decreased”.
`CNC(=O)[C@H](Cc1ccccc1)NC(=O)[C@H](CC(C)C)[C@H](CSc1cccs1)C(=O)NO` [Batimastat, reference compound] gave a pIC50 (Human MMP-9) of 7.64 and a pIC50 (Human MMP-14) of 7.72.
